This passage reports IC50 and Emax results from ChEMBL document CHEMBL2021850, “Steroidal C-21 heteroaryl thioethers. Part 3: pregn-4-eno-[3,2-c]pyrazole fused A ring modified steroids as selective glucocorticoid receptor modulators (dissociated steroids)” (Bioorg Med Chem Lett, 2012).

Test [1] concerns the target T1, Glucocorticoid receptor (Homo sapiens, UniProt P04150).
T1 sequence (P04150 whole entry): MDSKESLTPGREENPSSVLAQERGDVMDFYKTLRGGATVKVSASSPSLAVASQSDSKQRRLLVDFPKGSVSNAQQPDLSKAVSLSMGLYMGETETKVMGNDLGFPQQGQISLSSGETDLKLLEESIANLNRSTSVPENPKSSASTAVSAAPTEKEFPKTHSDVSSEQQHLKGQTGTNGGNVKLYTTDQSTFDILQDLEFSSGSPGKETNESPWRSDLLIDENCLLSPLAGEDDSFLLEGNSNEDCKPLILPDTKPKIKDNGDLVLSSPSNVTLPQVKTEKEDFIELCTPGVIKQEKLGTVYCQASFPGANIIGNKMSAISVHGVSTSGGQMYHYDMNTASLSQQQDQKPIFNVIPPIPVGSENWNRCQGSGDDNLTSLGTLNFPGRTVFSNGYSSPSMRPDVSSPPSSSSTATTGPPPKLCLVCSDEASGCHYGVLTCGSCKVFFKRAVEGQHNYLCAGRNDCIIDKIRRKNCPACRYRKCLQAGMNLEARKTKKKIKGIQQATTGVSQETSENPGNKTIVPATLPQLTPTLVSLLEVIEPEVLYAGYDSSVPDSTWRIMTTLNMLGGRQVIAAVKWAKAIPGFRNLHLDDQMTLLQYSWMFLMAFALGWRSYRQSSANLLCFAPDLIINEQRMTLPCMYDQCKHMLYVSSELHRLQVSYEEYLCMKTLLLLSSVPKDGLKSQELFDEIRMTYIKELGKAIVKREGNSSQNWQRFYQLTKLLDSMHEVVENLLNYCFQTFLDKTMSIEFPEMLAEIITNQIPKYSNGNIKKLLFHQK
The experiment in a line: Transrepression activity at glucocorticoid receptor in human H292 cells assessed as inhibition of TNF-induced IL8 production. Format: cell-based.

The target of test [2] is T1, Glucocorticoid receptor. Briefly: Transactivation activity at human glucocorticoid receptor in cells co-expressing GRE by luciferase reporter gene assay relative to control. The following applies: read-out: Efficacy. (In general: A reporter such as luciferase makes a cellular process visible.)
The target in test [3] is T1, Glucocorticoid receptor. Briefly: Transactivation activity at glucocorticoid receptor in human HepG2 cells assessed as induction of tyrosine aminotransferase. Format: ADME, cell-based.
Test [4] concerns the target T2, Glucocorticoid receptor (Rattus norvegicus, UniProt P06536).
T2 sequence (P06536 whole entry): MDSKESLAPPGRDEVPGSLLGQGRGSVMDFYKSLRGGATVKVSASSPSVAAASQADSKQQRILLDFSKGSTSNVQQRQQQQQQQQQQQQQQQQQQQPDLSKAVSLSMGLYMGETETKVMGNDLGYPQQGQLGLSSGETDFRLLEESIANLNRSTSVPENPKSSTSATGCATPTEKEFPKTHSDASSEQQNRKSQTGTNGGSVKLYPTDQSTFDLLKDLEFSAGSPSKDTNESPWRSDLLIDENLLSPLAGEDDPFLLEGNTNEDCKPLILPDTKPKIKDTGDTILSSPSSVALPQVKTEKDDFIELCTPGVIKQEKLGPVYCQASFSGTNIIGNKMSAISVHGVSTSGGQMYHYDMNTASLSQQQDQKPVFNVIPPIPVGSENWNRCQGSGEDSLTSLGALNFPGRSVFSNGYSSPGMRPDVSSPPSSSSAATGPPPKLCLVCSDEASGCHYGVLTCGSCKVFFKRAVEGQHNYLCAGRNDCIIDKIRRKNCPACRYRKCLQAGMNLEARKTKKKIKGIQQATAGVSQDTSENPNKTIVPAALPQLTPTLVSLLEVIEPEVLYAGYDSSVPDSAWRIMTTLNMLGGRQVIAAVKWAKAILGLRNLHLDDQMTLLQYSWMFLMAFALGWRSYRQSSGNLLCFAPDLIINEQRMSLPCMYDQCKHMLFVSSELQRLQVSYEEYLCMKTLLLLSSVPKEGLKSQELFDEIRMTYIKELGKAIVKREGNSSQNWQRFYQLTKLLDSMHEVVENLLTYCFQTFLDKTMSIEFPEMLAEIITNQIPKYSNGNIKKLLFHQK
Briefly: Transactivation activity at glucocorticoid receptor in rat H4II-E cells assessed as induction of tyrosine aminotransferase. Format: ADME, cell-based.

SMILES strings stand for the structures. pIC50: −log10 of the molar value.

In the case of `C[C@]12Cc3cnn(C4CCCCC4)c3C=C1CC[C@@H]1[C@@H]2[C@@H](O)C[C@@]2(C)[C@H]1CC[C@]2(O)C(=O)CSc1ccccn1`, at Glucocorticoid receptor [1], the pIC50 was 8.36. The Emax at Glucocorticoid receptor [2] is 87%.

For `COc1ccc(-n2ncc3c2C=C2CC[C@@H]4[C@H]([C@@H](O)C[C@@]5(C)[C@H]4CC[C@]5(O)C(=O)CSc4nc5ccccc5s4)[C@@]2(C)C3)cc1`, the pIC50 at Glucocorticoid receptor [1] is 6.97.

Consider `C[C@]12Cc3cnn(C4CCOCC4)c3C=C1CC[C@@H]1[C@@H]2[C@@H](O)C[C@@]2(C)[C@H]1CC[C@]2(O)C(=O)CSc1nc2ccccc2s1`, for which the pIC50 on Glucocorticoid receptor [1] was 7.06.

For `C[C@]12CCC(=O)C=C1CC[C@@H]1[C@@H]2[C@@H](O)C[C@@]2(C)[C@H]1CC[C@]2(O)C(=O)CSc1nc2ccccc2s1`, the Emax at Glucocorticoid receptor [2] was 30%.

In the case of `C[C@]12Cc3cnn(-c4ccc(F)cc4)c3C=C1CC[C@@H]1[C@@H]2[C@@H](O)C[C@@]2(C)[C@H]1CC[C@]2(O)C(=O)CSc1ccc2ccccc2n1`, the pIC50 is 8.28 at Glucocorticoid receptor [1], 7.74 at Glucocorticoid receptor [3] and 7.61 at Glucocorticoid receptor [4].

On to `C[C@]12CCC(=O)C=C1CC[C@@H]1[C@@H]2[C@@H](O)C[C@@]2(C)[C@H]1CC[C@]2(O)C(=O)CSc1nnc(-c2ccccc2)o1`, for which, on Glucocorticoid receptor [1], the pIC50 is 7.53. Also, the Emax at Glucocorticoid receptor [2] is 54%.

As for `C[C@]12Cc3cnn(-c4ccc(F)cc4)c3C=C1CC[C@@H]1[C@@H]2[C@@H](O)C[C@@]2(C)[C@H]1CC[C@]2(O)C(=O)COc1cnc2ccccc2n1`, the results for the pIC50 on Glucocorticoid receptor [1] and at Glucocorticoid receptor [3] were 8.72 and 7.01, respectively.

With `C[C@]12Cc3cnn(-c4ccc(F)cc4)c3C=C1CC[C@@H]1[C@@H]2[C@@H](O)C[C@@]2(C)[C@H]1CC[C@]2(O)C(=O)COc1ccc2ccccc2c1`, the pIC50 was 8.97 on Glucocorticoid receptor [1], 7.53 at Glucocorticoid receptor [3] and 7.24 at Glucocorticoid receptor [4].

Turning to `C[C@]12Cc3cnn(-c4ccc(F)cc4)c3C=C1CC[C@@H]1[C@@H]2[C@@H](O)C[C@@]2(C)[C@H]1CC[C@]2(O)C(=O)CSc1nc2ccccc2c(=O)[nH]1`, the pIC50 at Glucocorticoid receptor [1] was 8.52; on Glucocorticoid receptor [3], 7.03; at Glucocorticoid receptor [4], 7.06.

For the compound `C[C@]12Cc3cnn(-c4ccccc4)c3C=C1CC[C@@H]1[C@@H]2[C@@H](O)C[C@@]2(C)[C@H]1CC[C@]2(O)C(=O)CSc1nc2ccccc2s1`, the results for the pIC50 on Glucocorticoid receptor [1], at Glucocorticoid receptor [3] and on Glucocorticoid receptor [4] were 8.12, 6.78 and 7.24, respectively. Further, the Emax on Glucocorticoid receptor [2] amounted to 89%.

Turning to `Cc1cccc(SCC(=O)[C@@]2(O)CC[C@H]3[C@@H]4CCC5=CC(=O)CC[C@]5(C)[C@H]4[C@@H](O)C[C@@]32C)n1`, the pIC50 on Glucocorticoid receptor [1] was 6.90. Further, at Glucocorticoid receptor [2], the Emax came out at 18%.

Take `Cn1c(OCC(=O)[C@@]2(O)CC[C@H]3[C@@H]4CCC5=Cc6c(cnn6-c6ccc(F)cc6)C[C@]5(C)[C@H]4[C@@H](O)C[C@@]32C)nc2ccccc21`: the pIC50 on Glucocorticoid receptor [1] is 8.54; on Glucocorticoid receptor [4], 7.11.

As to `C[C@]12Cc3cnn(-c4ccc(F)cc4)c3C=C1CC[C@@H]1[C@@H]2[C@@H](O)C[C@@]2(C)[C@H]1CC[C@]2(O)C(=O)COc1ccc2ccccc2n1`, the pIC50 on Glucocorticoid receptor [1] is 8.74; at Glucocorticoid receptor [4], 7.35.

Take `C[C@]12Cc3cnn(C4CCCCC4)c3C=C1CC[C@@H]1[C@@H]2[C@@H](O)C[C@@]2(C)[C@H]1CC[C@]2(O)C(=O)CSc1cnc2ccccc2n1`: the pIC50 on Glucocorticoid receptor [1] is 7.91. Also, the Emax at Glucocorticoid receptor [2] was 84%.

With `Cn1c(SCC(=O)[C@@]2(O)CC[C@H]3[C@@H]4CCC5=Cc6c(cnn6-c6ccc(F)cc6)C[C@]5(C)[C@H]4[C@@H](O)C[C@@]32C)nc2ccccc21`, the values for the pIC50 at Glucocorticoid receptor [1], on Glucocorticoid receptor [3] and at Glucocorticoid receptor [4] were 8.96, 7.05 and 6.76, respectively.

Take `C[C@]12Cc3cnn(-c4ccc(F)cc4)c3C=C1CC[C@@H]1[C@@H]2[C@@H](O)C[C@@]2(C)[C@H]1CC[C@]2(O)C(=O)COc1nc2ccccc2s1`: the figures for the pIC50 on Glucocorticoid receptor [1] and on Glucocorticoid receptor [4] were 8.68 and 7.08, respectively.

Consider `C[C@]12Cc3cnn(-c4ccccc4)c3C=C1CC[C@@H]1[C@@H]2[C@@H](O)C[C@@]2(C)[C@H]1CC[C@]2(O)C(=O)COc1cnc2ccccc2n1`, for which the pIC50 at Glucocorticoid receptor [1] is 8.43. Besides, the Emax at Glucocorticoid receptor [2] worked out at 56%.

Take `C[C@]12Cc3cnn(-c4ccc(F)cc4)c3C=C1CC[C@@H]1[C@@H]2[C@@H](O)C[C@@]2(C)[C@H]1CC[C@]2(O)C(=O)CSc1nc2ccccc2s1`: the pIC50 is 8.77 at Glucocorticoid receptor [1], 7.00 on Glucocorticoid receptor [3] and 7.62 on Glucocorticoid receptor [4].

Take `C[C@]12Cc3cnn(-c4ccc(F)cc4)c3C=C1CC[C@@H]1[C@@H]2[C@@H](O)C[C@@]2(C)[C@H]1CC[C@]2(O)C(=O)CSc1ncccn1`: the pIC50 on Glucocorticoid receptor [1] is 9.22; on Glucocorticoid receptor [3] it was 7.42; on Glucocorticoid receptor [4], 7.84.

`C[C@]12CCC(=O)C=C1CC[C@@H]1[C@@H]2[C@@H](O)C[C@@]2(C)[C@H]1CC[C@]2(O)C(=O)CSc1ccc(Cl)c(Cl)c1`: the negative-log IC50 (pIC50) on Glucocorticoid receptor [1] was 7.57. Also, on Glucocorticoid receptor [2], the Emax worked out at 28%.

Regarding `C[C@]12Cc3cnn(-c4ccc(F)cc4)c3C=C1CC[C@@H]1[C@@H]2[C@@H](O)C[C@@]2(C)[C@H]1CC[C@]2(O)C(=O)CSc1ccccn1`, the pIC50 was 9.30 at Glucocorticoid receptor [1], 8.33 at Glucocorticoid receptor [3] and 8.35 on Glucocorticoid receptor [4].

For `C[C@]12Cc3cnn(-c4ccc(F)cc4)c3C=C1CC[C@@H]1[C@@H]2[C@@H](O)C[C@@]2(C)[C@H]1CC[C@]2(O)C(=O)CSc1ccc2ccccc2c1`, the pIC50 on Glucocorticoid receptor [1] is 9.14; at Glucocorticoid receptor [3] it was 7.52; at Glucocorticoid receptor [4] it was 7.28.

For `Cn1c(SCC(=O)[C@@]2(O)CC[C@H]3[C@@H]4CCC5=Cc6c(cnn6C6CCCCC6)C[C@]5(C)[C@H]4[C@@H](O)C[C@@]32C)nc2ccccc21`, the pIC50 on Glucocorticoid receptor [1] is 8.18; at Glucocorticoid receptor [4], 6.00. For the same compound, the Emax at Glucocorticoid receptor [2] turned out to be 75%.

Turning to `C[C@]12Cc3cnn(-c4ccc(F)cc4)c3C=C1CC[C@@H]1[C@@H]2[C@@H](O)C[C@@]2(C)[C@H]1CC[C@]2(O)C(=O)CSc1nccc2ccccc12`, the results for the pIC50 at Glucocorticoid receptor [1], at Glucocorticoid receptor [3] and at Glucocorticoid receptor [4] were 8.80, 7.43 and 7.18, respectively.

In the case of `C[C@]12Cc3cnn(C4CCCCC4)c3C=C1CC[C@@H]1[C@@H]2[C@@H](O)C[C@@]2(C)[C@H]1CC[C@]2(O)C(=O)CSc1ccc2ccccc2n1`, the pIC50 at Glucocorticoid receptor [1] is 7.35. The Emax at Glucocorticoid receptor [2] is 71%.

Regarding `C[C@]12Cc3cnn(C4CCCCC4)c3C=C1CC[C@@H]1[C@@H]2[C@@H](O)C[C@@]2(C)[C@H]1CC[C@]2(O)C(=O)CSc1nc2ccccc2o1`, the results for the pIC50 on Glucocorticoid receptor [1], at Glucocorticoid receptor [3] and on Glucocorticoid receptor [4] were 8.51, 7.09 and 7.50, respectively. The Emax on Glucocorticoid receptor [2] is 72%.

`C[C@]12Cc3cnn(-c4ccccn4)c3C=C1CC[C@@H]1[C@@H]2[C@@H](O)C[C@@]2(C)[C@H]1CC[C@]2(O)C(=O)CSc1nc2ccccc2s1`: the pIC50 at Glucocorticoid receptor [1] is 6.75.

With `C[C@]12Cc3cnn(C4CCCCC4)c3C=C1CC[C@@H]1[C@@H]2[C@@H](O)C[C@@]2(C)[C@H]1CC[C@]2(O)C(=O)CSc1nc2ccccc2s1`, the pIC50 was 8.15 on Glucocorticoid receptor [1], 6.40 at Glucocorticoid receptor [3] and 7.26 on Glucocorticoid receptor [4]. The Emax on Glucocorticoid receptor [2] stood at 78%.

Turning to `C[C@]12CCC(=O)C=C1CC[C@@H]1[C@@H]2[C@@H](O)C[C@@]2(C)[C@H]1CC[C@]2(O)C(=O)CSc1nc2ncccc2o1`, the pIC50 on Glucocorticoid receptor [1] was 7.21. For the same compound, the Emax at Glucocorticoid receptor [2] was found to be 37%.

As a reminder, the pIC50 is the negative decadic logarithm of the IC50, by convention in mol/L.
